Patent publication US20230066011A1, “PYRROLOPYRIMIDINE DERIVATIVE, AND PHARMACEUTICAL COMPOSITION FOR PREVENTING OR TREATING PROTEIN KINASE-RELATED DISEASE COMPRISING SAME AS ACTIVE INGREDIENT” (VORONOI CO., LTD., priority 2019, published 2023)

How the values were obtained:
Type in all cases: binding
CLK4 = molecular target: T1, CLK4 (Homo sapiens, UniProt Q9HAZ1); assay: ScanMAX Kinase analysis panel, CLK4; details: 1 μM in DMSO; <35% considered inhibitory; read-out: percent control (% control), CLK4
T1 construct: purchased DiscoverX Corp. (ScanMAX Kinase analysis panel, service)
T1 sequence (Q9HAZ1 whole entry): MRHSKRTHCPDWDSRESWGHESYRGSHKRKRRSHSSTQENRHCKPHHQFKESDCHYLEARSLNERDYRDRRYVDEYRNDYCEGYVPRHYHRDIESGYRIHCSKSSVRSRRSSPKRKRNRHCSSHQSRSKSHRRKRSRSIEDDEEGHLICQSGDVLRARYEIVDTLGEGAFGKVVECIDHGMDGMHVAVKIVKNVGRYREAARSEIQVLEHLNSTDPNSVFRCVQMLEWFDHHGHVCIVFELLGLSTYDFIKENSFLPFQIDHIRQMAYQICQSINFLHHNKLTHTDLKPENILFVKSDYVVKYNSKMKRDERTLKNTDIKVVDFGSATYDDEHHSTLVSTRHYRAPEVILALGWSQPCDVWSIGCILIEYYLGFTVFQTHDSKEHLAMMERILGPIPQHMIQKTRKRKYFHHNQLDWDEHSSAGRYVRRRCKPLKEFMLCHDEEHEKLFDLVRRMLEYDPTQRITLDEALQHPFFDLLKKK
Method: (§1) Specifically, the enzyme (kinase) selectivity of Example compounds 238, 361, 411, 157, 161, 228, and 158 selected from the Example compounds of the present invention was determined by commissioning DiscoverX Corp., and an experiment was performed using a ScanMAX™ Kinase analysis panel. In this case, a concentration of the drug with which the enzymes were treated was 1 μM in DMSO, and the percent control (% control) was defined in the same manner as in the following Expression 1.
(§2) (Example Compound−Positive Control)/(Negative Control−Positive Control)×100 [Expression 1]
(§3) wherein the positive control represents a compound having a percent control of 0%, and the negative control represents DMSO having a percent control of 100%. For the enzyme selectivity of the present invention, it was considered that the compound has an inhibitory activity on each of the enzymes when the percent control for the corresponding enzyme was <35% (i. e., less than 35%).

GAK = molecular target: T2, GAK (Homo sapiens, UniProt O14976); assay: ScanMAX Kinase analysis panel, GAK; details: 1 μM in DMSO; <35% considered inhibitory; read-out: percent control (% control), GAK
T2 construct: purchased DiscoverX Corp. (ScanMAX Kinase analysis panel, service)
T2 sequence (O14976 1-1311): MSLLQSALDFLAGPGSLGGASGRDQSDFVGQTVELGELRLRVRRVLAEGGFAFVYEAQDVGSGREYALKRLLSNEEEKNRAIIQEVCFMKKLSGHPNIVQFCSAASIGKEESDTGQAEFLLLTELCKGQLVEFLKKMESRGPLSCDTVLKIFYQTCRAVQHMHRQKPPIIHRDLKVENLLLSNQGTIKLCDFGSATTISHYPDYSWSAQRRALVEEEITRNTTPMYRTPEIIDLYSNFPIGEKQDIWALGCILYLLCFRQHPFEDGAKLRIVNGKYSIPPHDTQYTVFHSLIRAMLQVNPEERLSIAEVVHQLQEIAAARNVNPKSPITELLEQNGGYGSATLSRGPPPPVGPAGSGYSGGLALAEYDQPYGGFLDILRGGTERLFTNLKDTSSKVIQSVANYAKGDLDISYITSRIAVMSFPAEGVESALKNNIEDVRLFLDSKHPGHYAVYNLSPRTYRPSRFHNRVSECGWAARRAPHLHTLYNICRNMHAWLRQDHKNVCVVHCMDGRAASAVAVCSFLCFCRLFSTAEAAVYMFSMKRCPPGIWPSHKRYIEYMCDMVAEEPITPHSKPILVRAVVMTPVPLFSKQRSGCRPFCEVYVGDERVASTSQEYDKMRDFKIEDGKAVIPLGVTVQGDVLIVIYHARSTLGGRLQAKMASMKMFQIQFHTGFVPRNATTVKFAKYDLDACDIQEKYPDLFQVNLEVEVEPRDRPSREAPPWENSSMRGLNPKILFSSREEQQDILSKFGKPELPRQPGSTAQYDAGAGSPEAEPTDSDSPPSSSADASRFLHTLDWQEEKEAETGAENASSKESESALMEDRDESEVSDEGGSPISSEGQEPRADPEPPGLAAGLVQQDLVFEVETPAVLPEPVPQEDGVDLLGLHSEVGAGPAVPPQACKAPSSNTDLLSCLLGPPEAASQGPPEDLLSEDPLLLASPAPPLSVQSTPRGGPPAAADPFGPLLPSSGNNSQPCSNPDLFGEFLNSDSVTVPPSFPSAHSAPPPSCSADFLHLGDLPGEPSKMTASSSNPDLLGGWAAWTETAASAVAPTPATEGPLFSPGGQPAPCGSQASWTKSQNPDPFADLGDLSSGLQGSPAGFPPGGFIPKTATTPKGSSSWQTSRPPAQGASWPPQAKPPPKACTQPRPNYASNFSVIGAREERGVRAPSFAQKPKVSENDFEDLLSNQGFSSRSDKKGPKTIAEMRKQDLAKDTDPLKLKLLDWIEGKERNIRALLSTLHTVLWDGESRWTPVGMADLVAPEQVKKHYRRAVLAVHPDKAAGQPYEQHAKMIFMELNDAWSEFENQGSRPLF
Method: as §1, §2, §3

DYRK2 = molecular target: T3, DYRK2 (Homo sapiens, UniProt Q92630); assay: ScanMAX Kinase analysis panel, DYRK2; details: 1 μM in DMSO; <35% considered inhibitory; read-out: percent control (% control), DYRK2
T3 construct: purchased DiscoverX Corp. (ScanMAX Kinase analysis panel, service)
T3 sequence (Q92630 1-601): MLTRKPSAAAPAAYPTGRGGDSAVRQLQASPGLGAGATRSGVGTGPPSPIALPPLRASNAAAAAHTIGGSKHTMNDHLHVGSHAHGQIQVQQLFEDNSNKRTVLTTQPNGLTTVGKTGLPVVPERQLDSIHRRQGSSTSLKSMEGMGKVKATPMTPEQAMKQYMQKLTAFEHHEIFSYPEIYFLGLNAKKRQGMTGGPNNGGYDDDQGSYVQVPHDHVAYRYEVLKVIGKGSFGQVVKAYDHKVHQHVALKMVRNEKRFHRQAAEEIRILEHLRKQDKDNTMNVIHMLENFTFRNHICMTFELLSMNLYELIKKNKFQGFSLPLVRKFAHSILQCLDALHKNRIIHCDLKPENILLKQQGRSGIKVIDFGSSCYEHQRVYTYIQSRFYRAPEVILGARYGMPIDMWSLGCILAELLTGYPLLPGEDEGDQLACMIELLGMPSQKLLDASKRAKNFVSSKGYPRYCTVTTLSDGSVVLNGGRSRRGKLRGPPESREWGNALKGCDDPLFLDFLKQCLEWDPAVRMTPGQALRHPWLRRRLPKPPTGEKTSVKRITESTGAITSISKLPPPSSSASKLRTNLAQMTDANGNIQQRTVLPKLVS
Method: as §1, §2, §3

PYK2 = molecular target: T4, PYK2 (Homo sapiens, UniProt Q14289); assay: ScanMAX Kinase analysis panel, PYK2; details: 1 μM in DMSO; <35% considered inhibitory; read-out: percent control (% control), PYK2
T4 construct: purchased DiscoverX Corp. (commissioned ScanMAX panel service)
T4 sequence (Q14289 whole entry): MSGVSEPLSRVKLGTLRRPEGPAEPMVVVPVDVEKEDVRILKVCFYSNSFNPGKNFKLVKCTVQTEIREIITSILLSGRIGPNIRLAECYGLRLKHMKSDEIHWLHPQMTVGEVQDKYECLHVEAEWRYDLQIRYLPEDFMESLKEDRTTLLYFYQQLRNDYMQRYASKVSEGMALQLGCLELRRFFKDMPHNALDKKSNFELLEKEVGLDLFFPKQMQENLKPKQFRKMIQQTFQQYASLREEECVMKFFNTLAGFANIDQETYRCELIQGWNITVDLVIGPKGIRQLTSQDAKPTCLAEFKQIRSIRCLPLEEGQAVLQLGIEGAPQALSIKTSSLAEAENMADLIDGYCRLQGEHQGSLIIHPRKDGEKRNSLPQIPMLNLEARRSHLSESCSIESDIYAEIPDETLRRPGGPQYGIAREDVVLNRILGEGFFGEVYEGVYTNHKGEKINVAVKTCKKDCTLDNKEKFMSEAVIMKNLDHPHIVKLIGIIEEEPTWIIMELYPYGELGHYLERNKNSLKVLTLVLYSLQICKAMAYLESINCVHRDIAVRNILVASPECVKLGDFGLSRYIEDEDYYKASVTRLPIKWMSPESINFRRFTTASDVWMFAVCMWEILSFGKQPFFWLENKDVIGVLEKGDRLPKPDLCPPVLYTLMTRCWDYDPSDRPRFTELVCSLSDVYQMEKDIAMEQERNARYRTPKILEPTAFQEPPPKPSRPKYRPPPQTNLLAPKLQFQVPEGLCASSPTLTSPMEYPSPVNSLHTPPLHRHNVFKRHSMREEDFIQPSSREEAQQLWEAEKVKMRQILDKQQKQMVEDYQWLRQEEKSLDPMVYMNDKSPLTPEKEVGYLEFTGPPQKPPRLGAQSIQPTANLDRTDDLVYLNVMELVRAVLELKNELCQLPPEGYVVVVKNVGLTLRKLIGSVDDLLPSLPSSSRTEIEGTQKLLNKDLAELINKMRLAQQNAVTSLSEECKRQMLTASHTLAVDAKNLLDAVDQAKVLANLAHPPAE
Method: as §1, §2, §3

| SMILES | remaining binding at 1 µM (CLK4) [%] | remaining binding at 1 µM (GAK) [%] | remaining binding at 1 µM (DYRK2) [%] | remaining binding at 1 µM (PYK2) [%] |
| --- | --- | --- | --- | --- |
| CCNc1nc(Nc2ccc(S(=O)(=O)N3CCC(N4CCOCC4)CC3)cc2OC)nc2[nH]cc(C(F)(F)F)c12 [Example 158, N^4-ethyl-N^2-(2-methoxy-4-((4-morpholinopiperidin-1-yl)sulfonyl)phenyl)-5-(trifluoromethyl)-7H-pyrrolo[2,3-d]pyrimidine-2,4-diamine 2,2,2-trifluoroacetate] | 0.3 | 21 | 25 | 3 |
| O=C(c1ccc(Nc2nc(C3CC3)c3c(C(F)(F)F)c[nH]c3n2)c2c1OCCO2)N1CCC(N2CCOCC2)CC1 [Example 228, (8-((4-cyclopropyl-5-(trifluoromethyl)-7H-pyrrolo[2,3-d]pyrimidin-2-yl)amino)-2,3-dihydrobenzo[b][1,4]dioxin-5-yl)(4-morpholinopiperidin-1-yl)methanone] | 0.05 | 3 | 16 | 22 |
| C=CCNc1nc(Nc2ccc(S(=O)(=O)N3CCC(N4CCOCC4)CC3)cc2OC)nc2[nH]cc(C#N)c12 [Example 361, 4-(allylamino)-2-((2-methoxy-4-((4-morpholino-piperidin-1-yl)sulfonyl)phenyl)amino)-7H-pyrrolo[2,3-d]pyrimidine-5-carbonitrile] | 2.8 | 2.7 | 10 | 2.2 |

Next, values leading:

| remaining binding at 1 µM (CLK4) [%] | remaining binding at 1 µM (GAK) [%] | remaining binding at 1 µM (DYRK2) [%] | remaining binding at 1 µM (PYK2) [%] | SMILES |
| --- | --- | --- | --- | --- |
| 0.55 | 4.2 | 7 | 5.5 | CNc1nc(Nc2ccc(S(=O)(=O)N3CCC(N4CCOCC4)CC3)cc2OC)nc2[nH]cc(C(F)(F)F)c12 [Example 157, N^2-(2-methoxy-4-((4-morpholinopiperidin-1-yl)sulfonyl)phenyl)-N^4-methyl-5-(trifluoromethyl)-7H-pyrrolo[2,3-d]pyrimidine-2,4-diamine 2,2,2-trifluoroacetate] |
| 0.65 | 4 | 33 | 1.3 | CCCNc1nc(Nc2ccc(S(=O)(=O)N3CCC(N4CCOCC4)CC3)cc2OC)nc2[nH]cc(C(F)(F)F)c12 [Example 161, N^2-(2-methoxy-4-((4-morpholinopiperidin-1-yl)sulfonyl)phenyl)-N^4-propyl-5-(trifluoromethyl)-7H-pyrrolo[2,3-d]pyrimidine-2,4-diamine] |
| 3.6 | 3.1 | 19 | 5.2 | CNc1nc(Nc2ccc(C(=O)N3CCC(N4CCOCC4)CC3)c3c2OCCO3)nc2[nH]cc(C(F)(F)F)c12 [Example 238, (8-((4-(methylamino)-5-(trifluoromethyl)-7H-pyrrolo[2,3-d]pyrimidin-2-yl)amino)-2,3-dihydrobenzo[b][1,4]dioxin-5-yl)(4-morpholinopiperidin-1-yl)methanone] |
| 1.4 | 2.4 | 28 | 13 | CNc1nc(Nc2ccc(P3(=O)CCN(C4CC4)CC3)cc2OC)nc2[nH]cc(C(F)(F)F)c12 [Example 411, 1-cyclopropyl-4-(3-methoxy-4-((4-(methylamino)-5-(trifluoromethyl)-7H-pyrrolo[2,3-d]pyrimidin-2-yl)amino)phenyl)-1,4-azaphosphinane-4-oxide] |
